Experimental data: patent US20220105150A1, “AMPHIPATHIC ALPHA-HELICAL ANTIMICROBIAL PEPTIDES TREAT INFECTIONS BY GRAM-NEGATIVE PATHOGENS” (priority 2019, published 2022)
Values after ≈ are worked out from the molar mass of the structure shown. Square brackets hold non-standard residues; d marks the D form. Peptide text beside a SMILES is read from it. Dab = NCC[C@H](N)C(=O)O

Assays:
[1] = test system: Acinetobacter baumannii strains resistant to Polymyxin B and Colistin; settings: strains resistant to Polymyxin B and Colistin, 24 h
Excerpt: The coupling procedure used 5 equivalents of Fmoc-D-amino acid or Fmoc-L-amino acid and HCTU (O-(1H-6-chlorobenzotriazole-1-yl)-1,1,3,3-tetramethyluronium hexafluorophosphate) and 6-Cl-HOBt (1-hydroxy-6-chloro-benztriazole) at 4.5 equivalents in DMF (Fisher Scientific, Denver, Colo.) and N-diisopropylethylamine (DIPEA) 10 equivalents (Oakwood Products, Inc., Estill, S.C.) in N-methyl-2-pyrrolidinone (NMP) (Fisher Scientific, Denver, Colo.) with the first and second couplings at room temperature for 30 min each. The deprotection procedure (removal of Fmoc protecting group) was carried out by treatment of the resin with 0.1 M HOBt (1-hydroxybenzotriazole) in DMF with 20% piperidine for 30 min. […] The resin was removed by filtration and peptide was precipitated with ice-cooled ethyl ether on ice for 15 min. Ether was decanted, the peptide was washed twice with ether and redissolved in acetonitrile/water (1:1, with 0.2% TFA) and the solution lyophilized to obtain the crude peptide. • Analytical and Preparative Purification by Reversed-Phase Chromatography: Analytical RP-HPLC: Column, Luna C18 (2), 250×4.6 mm I.D., 5 μm particle size, 100 Å pore size from Phenomenex (Torrance, Calif.). Run conditions: linear AB gradient (1% acetonitrile/min, starting from 2% acetonitrile) at a flow-rate of 1 ml/min, where eluent A is 0.2% aq. TFA and eluent B is 0.18% TFA in acetonitrile; temperature, 30° C. Preparative RP-HPLC: Peptides were dissolved in 0.2% aq. TFA containing 2% acetonitrile to a final concentration of 10 mg/ml. Following filtration through a 0.45 μm Millipore filter and subsequently through a 0.22 μm filter, the peptide solutions were loaded onto the column via multiple 20-ml injections into a 20-ml injection loop at a flow-rate of 10 ml/min. Column, Luna C18 (2), 250×30 mm I.D., 5 um particle size, 100 Å pore size from Phenomenex. Run conditions: 2% acetonitrile/min gradient up to an acetonitrile concentration 10% below that required to elute the peptide during analytical RP-HPLC, then shallow gradient elution (0.05% or 0.1% acetonitrile/min depending on the complexity of impurities near the product of interest on the analytical run of the crude peptide) at a flow-rate of 10 ml/min (same eluents as shown above for analytical RP-HPLC); at room temperature. • Temperature Profiling of Peptides on Reversed-phase HPLC to Measure Dimerization and Oligomerization: Purified peptides were analyzed on an Agilent 1200 series liquid chromatograph for temperature profiling using a Zorbax 300 SB-C8 column (150 mm×2.1 mm I.D.; 5 μm particle size, 300 Å pore size) from Agilent Technologies. […] Temperature profiling was carried out on peptide mixtures run at each temperature in 2° C. increments from 5° C. to 41° C. and 10° C. increments from 5° C. to 75° C. Twenty minutes was allowed between runs for temperature equilibration. • Characterization of Helical Structure: The mean residue molar ellipticities of peptides were determined by circular dichroism (CD) spectroscopy, using a Jasco J-815 spectropolarimeter (Jasco Inc. Easton, Md., USA) at 5° C. under KP buffer (50 mM NaH2PO4/Na2HPO4/100 mM KCl, pH 7.0) as well as in the presence of an α-helix inducing solvent, 2,2,2-trifluoroethanol, TFE, (50 mM NaH2PO4/Na2HPO4/100 mM KCl, pH 7.0 buffer/50% TFE). A 10-fold dilution of an approximately 500 μM stock solution of the peptide analogs was loaded into a 0.1 cm quartz cell and its ellipticity scanned from 195 to 250 nm.

[2] = test system: Acinetobacter baumannii isolates resistant to classical antibiotics; type: cell-based; settings: isolates resistant to classical antibiotics
Excerpt: Thus, shortening the number of carbon atoms between the side-chain amino group and the α-carbon atom from four (Lys) to one (diaminopropionic acid) had very little effect on antibacterial activity (Table 2). We also determined the antibacterial activity of our five AMPs against 20 additional Acinetobacter baumannii isolates from four continents, 12 different countries and 17 different cities that were resistant to 18 different antibiotics. […] Thus, it is very clear that changing the type of positively-charged residue on the polar face of these AMPs had very little effect on the antibacterial activities.

Row | Structure (SMILES) | MIC MB9941 [1] [µM] | MIC MB9949 [1] [µM] | MIC MB9951 [1] [µM] | MIC MB9952 [1] [µM] | MIC MB9953 [1] [µM] | MIC MB9955 [1] [µM] | MIC MB9963 [1] [µM] | MIC 101887 [2] [µM] | MIC 961997 [2] [µM] | MIC 963618 [2] [µM] | MIC 964304 [2] [µM] | MIC 977751 [2] [µM] | MIC 981653 [2] [µM] | MIC 1002956 [2] [µM] | MIC 1007660 [2] [µM] | MIC 1010282 [2] [µM] | MIC 1035166 [2] [µM]
1 | CC(=O)N[C@H](CCCCN)C(=O)N[C@H](CC(C)C)C(=O)N[C@@H](CCN)C(=O)N[C@H](CO)C(=O)N[C@H](CC(C)C)C(=O)N[C@H](CC(C)C)C(=O)N[C@@H](CCN)C(=O)N[C@@H](C(=O)N[C@H](CC(C)C)C(=O)N[C@H](CO)C(=O)N[C@H](C)C(=O)N[C@H](C)C(=O)N[C@H](CCCCN)C(=O)N[C@@H](CCN)C(=O)N[C@@H](CCN)C(=O)N[C@H](CCCCN)C(=O)N[C@H](CC(C)C)C(=O)N[C@H](C)C(=O)N[C@@H](C(=O)N[C@H](CC(C)C)C(=O)N[C@H](CC(C)C)C(=O)N[C@@H](CCN)C(=O)N[C@H](C)C(=O)N[C@H](CC(C)C)C(=O)N[C@H](CO)C(=O)N[C@H](CO)C(N)=O)[C@H](C)O)[C@H](C)O [D104(Lys^1Ser^26-5 Dab-2), Ac-KL(L-Dab)SLL(L-Dab)TLSAAK(L-Dab)(L-Dab)KLATLL(L-Dab)ALS(Ser)-amide] (Ac-[dK][dL][Dab][dS][dL][dL][Dab][dT][dL][dS][dA][dA][dK][Dab][Dab][dK][dL][dA][dT][dL][dL][Dab][dA][dL][dS][dS]-NH2) | 0.7 (≈ 1.88 µg/mL) | 0.7 (≈ 1.88 µg/mL) | 0.7 (≈ 1.88 µg/mL) | 0.7 (≈ 1.88 µg/mL) | 1.5 (≈ 4.03 µg/mL) | 0.7 (≈ 1.88 µg/mL) | 0.7 (≈ 1.88 µg/mL) |  |  |  |  |  |  |  |  |  | 
2 | CC(=O)N[C@H](CCCCN)C(=O)N[C@H](CC(C)C)C(=O)N[C@H](CCCCN)C(=O)N[C@H](CO)C(=O)N[C@H](CC(C)C)C(=O)N[C@H](CC(C)C)C(=O)N[C@H](CCCCN)C(=O)N[C@@H](C(=O)N[C@H](CC(C)C)C(=O)N[C@H](CO)C(=O)N[C@H](CCCCN)C(=O)N[C@H](C)C(=O)N[C@H](CCCCN)C(=O)N[C@H](C)C(=O)N[C@H](C)C(=O)N[C@H](CCCCN)C(=O)N[C@H](CC(C)C)C(=O)N[C@H](CCCCN)C(=O)N[C@@H](C(=O)N[C@H](CC(C)C)C(=O)N[C@H](CC(C)C)C(=O)N[C@H](CCCCN)C(=O)N[C@H](C)C(=O)N[C@H](CC(C)C)C(=O)N[C@H](CO)C(=O)N[C@H](CCCCN)C(N)=O)[C@H](C)O)[C@H](C)O [D84(Lys^1-6Lys-1), Ac-KL(Lys)SLL(Lys)TLS(Lys)AKAAKL(Lys)TLL(Lys)ALS(Lys)-amide] | 0.3 (≈ 0.86 µg/mL) | 0.7 (≈ 2.01 µg/mL) | 0.3 (≈ 0.86 µg/mL) | 0.7 (≈ 2.01 µg/mL) | 0.7 (≈ 2.01 µg/mL) | 0.3 (≈ 0.86 µg/mL) | 0.7 (≈ 2.01 µg/mL) | 0.7 (≈ 2.01 µg/mL) | 1.4 (≈ 4.01 µg/mL) | 0.7 (≈ 2.01 µg/mL) | 1.4 (≈ 4.01 µg/mL) | 0.3 (≈ 0.86 µg/mL) | 0.7 (≈ 2.01 µg/mL) | 0.3 (≈ 0.86 µg/mL) | 0.3 (≈ 0.86 µg/mL) | 0.7 (≈ 2.01 µg/mL) | 0.7 (≈ 2.01 µg/mL)
3 | CC(=O)N[C@H](CCCCN)C(=O)N[C@H](CC(C)C)C(=O)N[C@H](CCCN)C(=O)N[C@H](CO)C(=O)N[C@H](CC(C)C)C(=O)N[C@H](CC(C)C)C(=O)N[C@H](CCCN)C(=O)N[C@@H](C(=O)N[C@H](CC(C)C)C(=O)N[C@H](CO)C(=O)N[C@H](CCCN)C(=O)N[C@H](C)C(=O)N[C@H](CCCCN)C(=O)N[C@H](C)C(=O)N[C@H](C)C(=O)N[C@H](CCCCN)C(=O)N[C@H](CC(C)C)C(=O)N[C@H](CCCN)C(=O)N[C@@H](C(=O)N[C@H](CC(C)C)C(=O)N[C@H](CC(C)C)C(=O)N[C@H](CCCN)C(=O)N[C@H](C)C(=O)N[C@H](CC(C)C)C(=O)N[C@H](CO)C(=O)N[C@H](CCCN)C(N)=O)[C@H](C)O)[C@H](C)O [D85(Lys^1-6Orn-1), Ac-KL(Orn)SLL(Orn)TLS(Orn)AKAAKL(Orn)TLL(Orn)ALS(Orn)-amide] | 0.7 (≈ 1.95 µg/mL) | 0.7 (≈ 1.95 µg/mL) | 0.7 (≈ 1.95 µg/mL) | 0.4 (≈ 1.11 µg/mL) | 0.4 (≈ 1.11 µg/mL) | 0.4 (≈ 1.11 µg/mL) | 0.4 (≈ 1.11 µg/mL) |  |  |  |  |  |  |  |  |  | 
